# According to patent publication US20240149033A1, “MICRONEEDLE COMPOSITIONS AND METHODS OF DELIVERY USING THE SAME” (The Brigham and Women`s Hospital, Inc., priority 2021, published 2024):
# Tested on: THP-1 cells
# Assay: Cytotoxicity of TCEP digestion media (LIVE/DEAD stain, flow cytometry)
# Format: cell-based
# Conditions: TCEP 0.1 mM to 100 mM, 10 minutes
# Protocol: Cell death was analyzed by flow cytometry after staining using the LIVE/DEAD fixable Violet Dead Cell Stain. Multiple comparisons among groups were determined using one-way ANOVA followed by a post-hoc test. P-value: *p<0.05, **p<0.01.
# The ability to induce on-demand digestion of the MNs using a reducing agent (Tris (2-carboxyethil) phosphine, TCEP) was also characterized. […] THP-1 cells were incubated with different concentrations of digestion media (TCEP solution in supplemented media), ranging from 0.1 mM to 100 mM, for 10 minutes. Thereafter, digestion media was removed, and cells were stained using the LIVE/DEAD fixable Violet Dead Cell Stain Kit (ThermoFisher Scientific, USA) following the manufacturer's guidelines. Dead cells were analyzed by flow cytometry using a BD LSRFortessa™ flow cytometer.
structure (smiles),measurement,value
"O=C(O)CCP(CCC(=O)O)CCC(=O)O [TCEP, tris(2-carboxyethyl)phosphine]",cell viability,did not affect cell viability
